# Patent US5952368A, “5-aroylpyrrol-2-ylmethylarene derivatives” (Syntex (U.S.A.) Inc., priority 1997, dated 1999)
# How the values were obtained:
# [1] = target: T1, COX I (Homo sapiens, UniProt P23219); test: Inhibition of COX I in vitro (radiometric assay, 14C arachidonic acid, partially purified enzyme); assay type: biochemical; settings: partially purified COX I, 20 micromolar arachidonic acid, 10 min preincubation, room temperature; read-out: COX I IC50
# T1 construct: made in house; baculovirus-infected insect cells by own knowledge of the cited Barnett et al. 1994
# T1 sequence (P23219 24-599): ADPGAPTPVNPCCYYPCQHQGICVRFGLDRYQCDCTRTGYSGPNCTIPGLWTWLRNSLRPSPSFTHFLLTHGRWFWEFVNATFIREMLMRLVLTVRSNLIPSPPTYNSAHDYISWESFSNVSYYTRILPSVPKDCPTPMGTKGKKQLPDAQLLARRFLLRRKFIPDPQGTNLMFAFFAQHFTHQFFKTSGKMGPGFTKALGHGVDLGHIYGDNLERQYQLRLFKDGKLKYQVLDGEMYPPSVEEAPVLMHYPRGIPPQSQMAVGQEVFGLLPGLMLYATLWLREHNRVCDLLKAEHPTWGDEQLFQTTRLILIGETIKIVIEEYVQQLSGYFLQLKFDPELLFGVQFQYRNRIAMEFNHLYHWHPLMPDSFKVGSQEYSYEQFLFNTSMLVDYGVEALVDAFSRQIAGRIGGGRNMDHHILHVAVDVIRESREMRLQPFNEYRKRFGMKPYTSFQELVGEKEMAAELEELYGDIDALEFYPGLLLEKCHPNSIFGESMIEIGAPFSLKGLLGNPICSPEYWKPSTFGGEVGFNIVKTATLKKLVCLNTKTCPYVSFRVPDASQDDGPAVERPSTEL
# Experimental: (§1) The COX I and COX II inhibitory activity of compounds of this invention in vitro was determined using partially purified COX I and COX II enzymes, prepared as described in J. Barnett et al., Biochim. Biophys. Acta, 1209:130--139 (1994).
# (§2) COX I and COX II samples were diluted with Tris-HCl buffer (50 mM Tris-HCl pH 7.9) containing 2 mM EDTA and 10% glycerol and reconstituted by incubating first with 2 mM phenol for 5 minutes and then with 1 micromolar hematin for an additional 5 minutes. 125 μl of the reconstituted COX I or COX II enzyme were preincubated for 10 minutes at room temperature in a shaking water bath with the compounds of the invention dissolved in 2-15 μl of DMSO or the carrier vehicles (control samples). The enzyme reaction was initiated by adding 25 μl of 1-[14C] arachidonic acid (80,000-100,000 cpm/tube; 20 micromolar final concentration) and the reaction was allowed to continue for an additional 45 seconds. The reaction was terminated by adding 100 μl of 2N HCl and 750 μl water. An aliquot (950 μl) of the reaction mixture was loaded onto a 1 ml C18 Sep-Pak column (J. T. Baker, Phillipsburg, N.J.) which had been previously washed with 2-3 ml methanol and equilibrated with 5-6 ml distilled water. Oxygenated products were quantitatively eluted with 3 ml of acetonitrile/water/acetic acid (50:50:0.1, v/v) and the radioactivity in the eluate determined in a scintillation counter.
# [2] = target: T2, COX II (Homo sapiens, UniProt P35354); test: Inhibition of COX II in vitro (radiometric assay, 14C arachidonic acid, partially purified enzyme); assay type: biochemical; settings: partially purified COX II, 20 micromolar arachidonic acid, 10 min preincubation, room temperature; read-out: COX II IC50
# T2 construct: made in house; baculovirus-infected insect cells by own knowledge of the cited Barnett et al. 1994
# T2 sequence (P35354 18-604): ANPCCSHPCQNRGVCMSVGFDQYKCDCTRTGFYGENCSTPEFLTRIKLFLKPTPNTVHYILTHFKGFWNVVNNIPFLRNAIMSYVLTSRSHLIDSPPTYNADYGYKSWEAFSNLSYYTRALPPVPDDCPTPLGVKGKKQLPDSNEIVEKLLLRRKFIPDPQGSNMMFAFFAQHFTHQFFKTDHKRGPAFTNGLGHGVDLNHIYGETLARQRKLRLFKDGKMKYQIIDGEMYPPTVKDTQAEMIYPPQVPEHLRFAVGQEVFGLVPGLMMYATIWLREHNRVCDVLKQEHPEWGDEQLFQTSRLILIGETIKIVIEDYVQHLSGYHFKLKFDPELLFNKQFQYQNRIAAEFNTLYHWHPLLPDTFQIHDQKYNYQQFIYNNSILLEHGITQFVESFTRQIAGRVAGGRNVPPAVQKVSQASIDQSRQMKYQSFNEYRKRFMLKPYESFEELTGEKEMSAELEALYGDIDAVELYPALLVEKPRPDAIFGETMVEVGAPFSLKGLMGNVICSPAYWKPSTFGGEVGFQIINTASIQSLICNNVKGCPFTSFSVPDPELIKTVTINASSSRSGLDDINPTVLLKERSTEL
# Experimental: as §1, §2
# [3] = tested on: carrageenan-induced paw edema; test: Anti-inflammatory activity: inhibition of carrageenan-induced paw edema in the rat; assay type: in vivo; settings: 10 mg/Kg, oral, female rats, 3 h after carrageenan
# Experimental: The anti-inflammatory activity of compounds of this invention was determined by measuring the inhibition of carrageenan-induced paw edema in the rat, using a modification of the method described in Winter C. A. et al. (1962) "Carrageenan-Induced Edema in Hind Paw of the Rat as an Assay for Anti-inflammatory Drugs". Proc. Soc. Exp. Biol. Med. 111: 544-547. This assay has been used as a primary in vivo screen for anti-inflammatoryactivity of most NSAIDs, and is considered predictive of human efficacy. Briefly, test materials were administered orally to female rats in a volume of 1 ml prepared as solutions or suspensions in an aqueous vehicle containing 0.9% NaCl, 0.5% sodium carboxymethyl-cellulose, 0.4% polysorbate 80, 0.9% benzyl alcohol and 97.3% distilled water. Control rats received vehicle alone. After 1 h 0.05 ml of a 0.5% solution of Carrageenan (Type IV Lambda, Sigma Chemical Co.) in 0.9% saline was injected into the subplantar region of the right hind paw. Three hours later the rats were euthanized in a carbon dioxide atmosphere; hind paws were removed by severing at the tatso-crural joint; and the left and right paws were weighed. The increase in weight of the right paw over the left paw was obtained for each animal and the mean increases were calculated for each group. The anti-inflammatory activity of the test materials is expressed as the percent inhibition of the increase in hind paw weight of the test group relative to the vehicle-dosed control group.
# [4] = tested on: air pouch PGE2 formation; test: Inhibition of eicosanoid (PGE2) synthesis in vivo: carrageenan air-pouch model in rats; set-up: species or system rat; settings: oral, male rats
# Experimental: In this assay, an air-pouch is created in the rat and the PGE2 levels in the air-pouch exudate are measured by enzyme immunoassay. Briefly, male rats were anesthetized using a 60:40 CO2 :O2 mixture and subsequently injected subcutaneously with 20 ml of sterilized air, under aseptic conditions, in the proximal area of the dorsum. This injection of sterile air causes the creation of a subcutaneous "air pouch". The next day, a further 10 ml of sterile air was injected into the previously formed pouch using the same technique. […] Control rats received vehicle alone. After 30 minutes, 5 ml of a 0.5% solution of carrageenan (Sigma, Lambda Type IV) was injected into the air pouch. The rats were euthanized 3 or 6 h after the compound administration. […] The total exudate volume was recorded, and the samples were analyzed for PGE2 and 6-keto PGF1 by ELISA (Titerzyme®, PerSeptive Diagnostics) and TxB2 by radioimmuno assay (New England Nuclear Research, Catalog No. NEK-037), according to the manufacturer's directions.
# The mean concentrations of PGE2 were calculated for each group. The anti-inflammatory activity of test materials is expressed as the percent inhibition of PGE2 formation in the test group relative to the control group.
# [5] = tested on: acetic acid-induced writhing; test: Analgesic activity: Acetic Acid-induced Rat Writhing Assay; assay type: in vivo; settings: 10 mg/Kg, oral, male Sprague Dawley rats
# Description: The analgesic activity of compounds of this invention may be determined by the Acetic Acid-induced Rat Writhing Assay, using a modification of the method described in Berkenkopf, J. W. and Weichman, B. M. "Production of Prostacyclin in Mice following Intraperitoneal Injection of Acetic Acid, Phenylbenzoquinone and Zymosan: Its Role in the Writhing Response" Prostaglandins: 36: 693-70 (1988). This assay is one of several acute assays which have been used to assess the analgesic activity of NSAIDs, and is considered predictive of human efficacy. The test materials were administered orally to male Sprague Dawley rats in a volume of 1 ml/100 g body weight as solutions or suspensions in an aqueous vehicle containing 0.9% NaCl 0.5% sodium carboxymethyl-cellulose, 0.4% polysorbate 80, 0.9% benzyl alcohol and 97.3% water. Control rats received vehicle alone. One hour after compound administration, 0.3 ml/100 g body weight of 0.75% solution of acetic acid was injected intraperitoneally. The acetic acid injection induces a series of characteristic writhing responses, which were counted over the period between 15 and 30 minutes after the injection. The analgesic activity of test materials is expressed as the percentage inhibition of writhing in the test group relative to the control group.
# [6] = tested on: cognitive decline of Alzheimer's patients; settings: cited from earlier work
Compound,IC50 [1] [µM],IC50 [2] [nM],% Inhibition (of the increase in hind paw weight) [3] [%],"% Inhibition of air pouch PGE2 formation ([4]; 30 mg/Kg, 6 hr) [%]",% Inhibition of writhing responses [5] [%],"% Inhibition of air pouch PGE2 formation ([4]; 10 mg/Kg, 3 hr) [%]","% Inhibition of air pouch PGE2 formation ([4]; 30 mg/Kg, 3 hr) [%]","% Inhibition of air pouch PGE2 formation ([4]; 2-5 mg/Kg, time not given) [%]",effect on cognitive decline of Alzheimer's patients (in words) [6]
"Cc1cc(Cc2ccc(NS(=O)(=O)N(C)C)cc2)n(C)c1C(=O)c1ccc(Cl)cc1 [compound 140, 1-{4-[5-(4-Chlorobenzoyl)-1,4-dimethyl-1H-pyrrol-2-ylmethyl]phenyl}-3,3-di-methylsulfamide]",5.4,120,27,83,4,,,,
"Cc1cc(Cc2ccc(NS(C)(=O)=O)cn2)n(C)c1C(=O)c1ccc(Cl)cc1 [compound 263, N-{2-[5-(4-Chlorobenzoyl)-1,4-dimethyl-1H-pyrrol-2-ylmethyl]pyridin-5-yl}-methanesulfonamide]",49,450,40,80,31,,,,
"CSc1ccc(C(=O)c2c(C)cc(Cc3ccc(N)cn3)n2C)cc1 [compound 334, {2-[5-(4-Methylthiobenzoyl)-1,4-dimethyl-1H-pyrrol-2-ylmethyl]pyridin-5-yl}amine]",18.3,640,,,,44,,,
"COc1ccc(C(=O)c2c(C)cc(Cc3ncc(NS(C)(=O)=O)cc3Cl)n2C)cc1 [compound 284, N-{3-Chloro-2-[5-(4-methoxybenzoyl)-1,4-dimethyl-1H-pyrrol-2-ylmethyl]pyridin-5-yl}-methanesulfonamide]",22,500,,,,65,,,
"Cc1cc(Cc2ccc(O)cc2)n(C)c1C(=O)c1ccc(Cl)cc1 [compound 343, 4-{5-(4-Chlorobenzoyl)-1,4-dimethyl-1H-pyrrol-2-ylmethyl}phenol]",6.6,540,35,,,,,,
"COc1ccc2c(c1)c(CC(=O)O)c(C)n2C(=O)c1ccc(Cl)cc1 [Indomethacin, indomethacin, reference compound]",,,,,,,,> 70,inhibit the cognitive decline of Alzheimer's patients

# Second part, led by results:
IC50 [1] [µM],IC50 [2] [nM],Compound,% Inhibition (of the increase in hind paw weight) [3] [%],"% Inhibition of air pouch PGE2 formation ([4]; 30 mg/Kg, 6 hr) [%]",% Inhibition of writhing responses [5] [%],"% Inhibition of air pouch PGE2 formation ([4]; 10 mg/Kg, 3 hr) [%]","% Inhibition of air pouch PGE2 formation ([4]; 30 mg/Kg, 3 hr) [%]","% Inhibition of air pouch PGE2 formation ([4]; 2-5 mg/Kg, time not given) [%]",effect on cognitive decline of Alzheimer's patients (in words) [6]
< 0.1,230,"COc1ccc(C(=O)c2c(C)cc(Cc3ccc(NS(=O)(=O)CCO)cc3F)n2C)cc1 [compound 98, N-{3-Fluoro-4-[5-(4-methoxybenzoyl)-1,4-dimethyl-1H-pyrrol-2-ylmethyl]phenyl}-2-(hydroxy)ethanesulfonamide]",42,,71,98,,,
2.9,60,"Cc1cc(Cc2ccc(NS(N)(=O)=O)cc2F)n(C)c1C(=O)c1ccc(Cl)cc1 [compound 146, 1-{3-Fluoro-4-[5-(4-chlorobenzoyl)-1,4-dimethyl-1H-pyrrol-2-ylmethyl]phenyl}sulfamide]",40,,,93,,,
89,430,"Cc1ccc(C(=O)c2ccc(Cc3ccc(NS(C)(=O)=O)cn3)n2C)cc1 [compound 271, N-{2-[5-(4-Methylbenzoyl)-1-methyl-1H-pyrrol-2-ylmethyl]pyridin-5-yl}methane-sulfonamide]",,,,56,,,
10,50,"Cc1ccc(C(=O)c2ccc(Cc3ccc(NS(=O)(=O)CCO)cc3F)n2C)cc1 [compound 36, N-{3-Fluoro-4-[5-(4-methylbenzoyl)-1-methyl-1H-pyrrol-2-ylmethyl]phenyl}-2-(hydroxy)ethanesulfonamide]",31,,16,96,,,
0.76,80,"Cc1cc(Cc2ccc(NS(C)(=O)=O)cc2C#N)n(C)c1C(=O)c1ccc(Cl)cc1 [compound 19, N-{3-Cyano-4-[5-(4-chlorobenzoyl)-1,4-dimethyl-1H-pyrrol-2-ylmethyl]phenyl}-methanesulfonamide]",36,,,74,,,
235,550,"COc1ccc(C(=O)c2ccc(Cc3ccc(NS(C)(=O)=O)cn3)n2C)cc1 [compound 288, N-{2-[5-(4-Methoxybenzoyl)-1-methyl-1H-pyrrol-2-ylmethyl]pyridin-5-yl}-methanesulfonamide]",20,,,53,,,
61,80,"Cc1ccc(C(=O)c2ccc(Cc3ccc(NS(=O)(=O)CCO)cc3F)n2C)c(C)c1 [compound 48, N-{3-Fluoro-4-[5-(2,4-dimethylbenzoyl)-1-methyl-1H-pyrrol-2-ylmethyl]phenyl}-2-(hydroxy)ethanesulfonamide]",35,,,,64,,
16.8,95,"Cc1ccc(C(=O)c2ccc(Cc3ccc(NS(N)(=O)=O)cc3F)n2C)c(C)c1 [compound 165, 1-{3-Fluoro-4-[5-(2,4-dimethylbenzoyl)-1-methyl-1H-pyrrol-2-ylmethyl]phenyl}sulfamide]",17,,,52,,,
